The NIST ThermoML archive (doi:10.1021/je501133u)

Columns and labels:
[1] = 100 kPa, Liquid; for viscosity: Falling or rolling sphere viscometry; for mass density: Vibrating tube method
[2] = xn = mol fraction of the nth substance listed; conditions: 100 kPa, Liquid, x1 = 1; for viscosity: Falling or rolling sphere viscometry; for mass density: Vibrating tube method

CCO [ethanol]
[1]
Conditions	mass density [kg/m3]	viscosity [mPa·s]
293.15 K	790.1	1.15
298.15 K	785.9	1.07
303.15 K	781.6	0.97
308.15 K	777.2	0.89
313.15 K	772.9	0.81
318.15 K	768.4	0.76
323.15 K	764	0.68
328.15 K	759.4	0.63

CCO [ethanol] + CCCCCCCO
[2]
Conditions	mass density [kg/m3]	viscosity [mPa·s]
293.15 K	790.1	1.15
298.15 K	785.9	1.07
303.15 K	781.6	0.97
308.15 K	777.2	0.89
313.15 K	772.9	0.81
318.15 K	768.4	0.76
323.15 K	764	0.68
328.15 K	759.4	0.63

CCO [ethanol] + CCCCCCO
[2]
Conditions	mass density [kg/m3]	viscosity [mPa·s]
293.15 K	790.1	1.15
298.15 K	785.9	1.07
303.15 K	781.6	0.97
308.15 K	777.2	0.89
313.15 K	772.9	0.81
318.15 K	768.4	0.76
323.15 K	764	0.68
328.15 K	759.4	0.63

CCCCCCCO [heptan-1-ol]
[1]
Conditions	mass density [kg/m3]	viscosity [mPa·s]
293.15 K	822.3	7.15
298.15 K	818.8	6.07
303.15 K	815.3	5.18
308.15 K	811.8	4.44
313.15 K	808.2	3.83
318.15 K	804.6	3.33
323.15 K	801	2.89
328.15 K	797.4	2.54

CCCCCCO [hexan-1-ol]
[1]
Conditions	mass density [kg/m3]	viscosity [mPa·s]
293.15 K	818.9	5.35
298.15 K	815.3	4.56
303.15 K	811.7	3.9
308.15 K	808.1	3.36
313.15 K	804.5	2.91
318.15 K	800.8	2.54
323.15 K	797.1	2.23
328.15 K	793.4	1.97
